Assay results published in patent publication US7015325B2, “Tryptase inhibitors” (ALTANA Pharma AG, priority 1999, dated 2006).
Structures can show the parent of a compound that is named as a salt.

Biological target: human tryptase
Experiment: Inhibition of human tryptase (apparent dissociation constant, chromogenic substrate tos-Gly-Pro-arg-pNA)
Assay type: biochemical
Conditions: apparent dissociation constant in presence of substrate; heparin 0.1–50 μg/ml; equilibrium conditions; read-out: Kiapp
Source text: The documented pathophysiological effects of mast cell tryptase are caused directly by the enzymatic activity of the protease. Accordingly, they are reduced or blocked by inhibitors which inhibit the enzymatic activity of the tryptase. A suitable measure for the affinity of a reversible inhibitor to the target protease is the equilibrium dissociation constant Ki of the enzyme-inhibitor complex. This Ki value can be determined via the effect of the inhibitor on the tryptase-induced cleavage of a chromogenic peptide-p-nitroanilide substrate or a fluorogenic peptide-aminomethylcoumarin substrate.
The dissociation constants for the tryptase-inhibitor complexes are determined under equilibrium conditions in accordance with the general proposals of Bieth (Bieth J G, Pathophysiological Interpretation of kinetic constants of protease inhibitors, Bull. Europ. Physiopath. Resp. 16:183–195, 1980) and the methods of Sommerhoff et al. (Sommerhoff C P et al., A Kazal-type inhibitor of human mast cell tryptase: Isolation from the medical leech Hirudo medicinalis, characterization, and sequence analysis, Biol. Chem. Hoppe-Seyler 375: 685–694, 1994).
Human tryptase is isolated from lung tissue or prepared recombinantly; the specific activity of the protease, determined by titration, is usually greater than 85% of the theoretical value. In the presence of heparin (0.1–50 μg/ml) for stabilizing the protease, constant amounts of the tryptase are incubated with increasing amounts of the inhibitors. After an equilibrium between the reaction partners has formed, the remaining enzyme activity after addition of the peptide-p-nitroanilide substrate tos-Gly-Pro-arg-pNA is determined and the cleavage of the latter is monitored at 405 nm for 3 min. Alternatively, the remaining enzymatic activity can also be determined using fluorogenic substrates. The apparent dissociation constants Kiapp (i.e. in the presence of substrate) are subsequently determined by adapting the enzyme rates to the general equation for reversible inhibitors (Morrison J F, Kinetics of the reversible inhibition of enzyme-catalyzed reactions by tight-binding inhibitors, Biochim. Biophys. Acta 185, 269–286, 1969) using non-linear regression: VI/V0=1−{Et+It+Kiapp−[(Et+It+Kiapp)^2−4EtIt]^1/2}/2Et VI and V0 are the rates in the presence and absence, respectively, of the inhibitor, and Et and It are the tryptase and inhibitor concentrations, respectively.
The apparent dissociation constants determined for the compounds according to the invention are shown in Table A below, where the numbers of the compounds correspond to the numbers of the compounds in the examples.

SMILES | Ki
NCc1cccc(CNC(=O)N2CCN(C(=O)OCCCCC#CC#CCCCCOC(=O)N3CCN(C(=O)NCc4cccc(CN)c4)CC3)CC2)c1 [Compound 6, 1,12-Bis-[4-(3-aminomethylbenzylaminocarbonyl)-1-piperazinylcarbonyl-1-oxy]-5,7-dodecadiyne dihydrochloride] | 1.4 nM
NC[C@H]1CC[C@H](C(=O)N2CCN(C(=O)OCCOCC#CCOCCOC(=O)N3CCN(C(=O)[C@H]4CC[C@H](CN)CC4)CC3)CC2)CC1 [Compound 1, 1,4-Bis-[4-(trans-4-aminomethylcyclohexylcarbonyl)-1-piperazinylcarbonyl-1-oxyethyl-2-oxy]-2-butyne dihydrochloride] | 86 nM
NCc1cccc(CNC(=O)N2CCN(C(=O)OCCOCC#CCOCCOC(=O)N3CCN(C(=O)NCc4cccc(CN)c4)CC3)CC2)c1 [Compound 3, 1,4-Bis-[4-(3-aminomethylbenzylaminocarbonyl)-1-piperazinylcarbonyl-1-oxyethyl-2-oxy]-2-butyne dihydrochloride] | 8 nM

Further lines, results first:

Ki | SMILES
12 nM | NCc1ccc(CNC(=O)N2CCN(C(=O)OCCCCC#CC#CCCCCOC(=O)N3CCN(C(=O)NCc4ccc(CN)cc4)CC3)CC2)cc1 [Compound 5, 1,12-Bis-[4-(4-aminomethylbenzylaminocarbonyl)-1-piperazinylcarbonyl-1-oxy]-5,7-dodecadiyne dihydrochloride]
8 nM | NCc1cccc(CNC(=O)N2CCN(C(=O)OCC#CC#CCOC(=O)N3CCN(C(=O)NCc4cccc(CN)c4)CC3)CC2)c1 [Compound 7, 1,6-Bis-[4-(3-aminomethylbenzylaminocarbonyl)-1-piperazinylcarbonyl-1-oxy]-2,4-hexadiyne dihydrochloride]
0.25 nM | NCc1ccc(CNC(=O)N2CCN(C(=O)OCC#CC#CCOC(=O)N3CCN(C(=O)NCc4ccc(CN)cc4)CC3)CC2)cc1 [Compound 4, 1,6-Bis-[4-(4-aminomethylbenzylaminocarbonyl)-1-piperazinylcarbonyl-1-oxy]-2,4-hexadiyne dihydrochloride]
0.35 nM | NCc1ccc(CNC(=O)N2CCN(C(=O)OCCOCC#CCOCCOC(=O)N3CCN(C(=O)NCc4ccc(CN)cc4)CC3)CC2)cc1 [Compound 2, 1,4-Bis-[4-(4-aminomethylbenzylaminocarbonyl)-1-piperazinylcarbonyl-1-oxyethyl-2-oxy]-2-butyne dihydrochloride]
